Data published in patent US20100166933A1, “Frozen Confectionery and Beverage Products” (priority 2008, published 2010).

Experiments:
[1] = Human crossover study, Bond-Lader mood questionnaire: alertness (Example 4); type: in vivo; details: theobromine 700 mg, caffeine 120 mg, gelatine capsule; for Alertness score in Bond-Lader test, 1 hour: 1 hour after ingestion; for Alertness score in Bond-Lader test, 2 hours: 2 hours after ingestion; for Alertness score in Bond-Lader test, 3 hours: 3 hours after ingestion; for Alertness score in Bond-Lader test, Time zero: time zero (baseline), 24 healthy volunteers
Source text: (§1) Volunteers consumed one of 4 treatments: theobromine only, caffeine only, theobromine and caffeine combined or placebo. […] Theobromine was pharmaceutical grade, supplied by Fagron, Netherlands. […] The placebo capsules matched in appearance and were filled with Avicel (microcrystalline cellulose). The gelatin capsules (size 1) were supplied by Blockland Medical supplies and meet European Pharmacopoeia (Ph. Eur) standards. […] Twenty-four healthy volunteers took part and arrived at the laboratory having consumed a standard lunch and having abstained from theobromine- and caffeine-containing foods such as chocolate for 12 hours. At the start of each session, participants answered a baseline set of questionnaires, which took approximately 15 minutes to complete. On completion, they were given a 10 minute break in which to consume the capsules. The questionnaire was repeated 1, 2 and 3 hours after ingestion. Blood pressure was measured at 0, 1 and 3 hours after treatment. Participants were allowed to read quietly between test batteries.

[2] = Human crossover study, systolic blood pressure (Example 4); details: theobromine 700 mg, caffeine 120 mg; for Change in systolic blood pressure, 1 hour: 1 hour after treatment; for Change in systolic blood pressure, 1 hour / Change in systolic blood pressure, 3 hours / Change in systolic blood pressure, Time zero: gelatine capsule; for Change in systolic blood pressure, 3 hours: 3 hours after treatment
Source text: as §1

Row | SMILES | Alertness score in Bond-Lader test, 1 hour [1] | Alertness score in Bond-Lader test, 2 hours [1] | Alertness score in Bond-Lader test, 3 hours [1] | Alertness score in Bond-Lader test, Time zero [1] | Change in systolic blood pressure, 1 hour [2] | Change in systolic blood pressure, 3 hours [2] | Change in systolic blood pressure, Time zero [2] [Hgmm] | Effect on systolic blood pressure after 1 hour (in words) ([2]; after 1 hour)
1 | Cn1cnc2c1c(=O)[nH]c(=O)n2C [Theobromine, 3,7-dimethylxanthine] | −0.06 | −0.03 | −0.01 | 0 | +3 Hgmm | +4 Hgmm | 0 | 
2 | Cn1c(=O)c2c(ncn2C)n(C)c1=O [Caffeine, 1,3,7-trimethylxanthine] | +0.01 | +0.05 | +0.07 | 0 | +10 Hgmm | −3 Hgmm | 0 | rise in systolic blood pressure (significantly higher than placebo)
